# Laboratory results as given in US20170136085A1, “TARGETED THERAPEUTICS” (SYNTA PHARMACEUTICALS CORP., priority 2014, published 2017).
# Tested on: HER2
# Assay: Degradation of HER2 in cells, Method 1 (SDS-PAGE / immunoblot)
# Type: cell-based
# Conditions: BT-474 cells, 0.5 μM, overnight in DMEM medium
# Experimental: BT-474 cells are treated with 0.5 μM, 2 μM, or 5 μM of 17-AAG (a positive control) or 0.5 μM, 2 μM, or 5 μM of an Hsp90-targeting moiety or conjugate of the invention overnight in DMEM medium. After treatment, each cytoplasmic sample is prepared from 1×10^6 cells by incubation of cell lysis buffer (#9803, Cell Signaling Technology) on ice for 10 minutes. The resulting supernatant used as the cytosol fractions is dissolved with sample buffer for SDS-PAGE and run on a SDS-PAGE gel, blotted onto a nitrocellulose membrane by using semi-dry transfer. Non-specific binding to nitrocellulose is blocked with 5% skim milk in TBS with 0.5% Tween at room temperature for 1 hour, then probed with anti-HER2/ErB2 mAb (rabbit IgG, #2242, Cell Signaling) and anti-Tubulin (T9026, Sigma) as housekeeping control protein. HRP-conjugated goat anti-rabbit IgG (H+L) and HRP-conjugated horse anti-mouse IgG (H+L) are used as secondary Ab (#7074, #7076, Cell Signaling) and LumiGLO reagent, 20× Peroxide (#7003, Cell Signaling) is used for visualization. The Hsp90 client protein HER2 is degraded when cells are treated with Hsp90-targeting moieties or SDC-TRAPs of the invention.
compound,measurement,value
C=CCNC1=C2C[C@@H](C)C[C@H](OC)[C@H](O)[C@@H](C)/C=C(\C)[C@H](OC(N)=O)[C@@H](OC)/C=C\C=C(/C)C(=O)NC(=CC1=O)C2=O [17-AAG],degradation of HER2,partial degradation
